Results taken from the supplement of paper PMC10307832.

How the values were obtained:
Test in all cases: relative viability (nuclei count vs DMSO), 5 days (fraction); higher = more cells survive
Cediranib + Dasatinib = compound: COc1cc2c(Oc3ccc4[nH]c(C)cc4c3F)ncnc2cc1OCCCN1CCCC1 [Cediranib] + Cc1nc(Nc2ncc(C(=O)Nc3c(C)cccc3Cl)s2)cc(N2CCN(CCO)CC2)n1 [Dasatinib] (partner 0.075 µM)
Outline: (§1)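 Medians of duplicate plates are given as relative viability. That measure is the nuclei count in treated wells divided by the count in vehicle wells. Counts were taken on 4× images of lung cancer cell lines in 1536-well plates, 5 days after pin-tool dosing the day after seeding with one drug alone or a fixed anchor-drug dose plus five library-drug doses (not always all listed) in √10 steps.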

Decitabine + Pemetrexed = compound: Nc1ncn([C@H]2C[C@H](O)[C@@H](CO)O2)c(=O)n1 [Decitabine] + Nc1nc2[nH]cc(CCc3ccc(C(=O)N[C@@H](CCC(=O)O)C(=O)O)cc3)c2c(=O)[nH]1 [Pemetrexed] (partner 0.2 µM)
Outline: as §1

Decitabine + Luminespib = compound: Nc1ncn([C@H]2C[C@H](O)[C@@H](CO)O2)c(=O)n1 [Decitabine] + CCNC(=O)c1noc(-c2cc(C(C)C)c(O)cc2O)c1-c1ccc(CN2CCOCC2)cc1 [Luminespib] (partner 0.01 µM)
Outline: as §1

Cediranib + Vorinostat = compound: COc1cc2c(Oc3ccc4[nH]c(C)cc4c3F)ncnc2cc1OCCCN1CCCC1 [Cediranib] + O=C(CCCCCCC(=O)Nc1ccccc1)NO [Vorinostat] (partner 1 µM)
Outline: as §1

Row | Cell Line | relative viability (Cediranib + Dasatinib; first compound 0.04 µM) | relative viability (Cediranib + Dasatinib; first compound 0.1265 µM) | relative viability (Cediranib + Dasatinib; first compound 0.4 µM) | relative viability (Cediranib + Dasatinib; first compound 1.265 µM) | relative viability (Cediranib + Dasatinib; first compound 4 µM) | relative viability (Decitabine + Pemetrexed; first compound 0.04 µM) | relative viability (Decitabine + Pemetrexed; first compound 0.1265 µM) | relative viability (Decitabine + Pemetrexed; first compound 0.4 µM) | relative viability (Decitabine + Pemetrexed; first compound 4 µM) | relative viability (Decitabine + Luminespib; first compound 0.04 µM) | relative viability (Decitabine + Luminespib; first compound 0.1265 µM) | relative viability (Decitabine + Luminespib; first compound 0.4 µM) | relative viability (Decitabine + Luminespib; first compound 4 µM) | relative viability (Cediranib + Vorinostat; first compound 0.04 µM) | relative viability (Cediranib + Vorinostat; first compound 0.1265 µM) | relative viability (Cediranib + Vorinostat; first compound 0.4 µM) | relative viability (Cediranib + Vorinostat; first compound 1.265 µM) | relative viability (Cediranib + Vorinostat; first compound 4 µM) | relative viability (Decitabine + Pemetrexed; first compound 1.265 µM) | relative viability (Decitabine + Luminespib; first compound 1.265 µM)
1 | 201T | 0.622 | 0.67 | 0.628 | 0.575 | 0.582 | 0.297 | 0.286 | 0.227 | 0.254 | 0.984 | 0.987 | 1.07 | 0.75 | 1.08 | 0.631 | 0.84 | 0.973 | 1.04 | – | –
2 | A-427 | 0.683 | – | 0.672 | 0.596 | 0.919 | 0.847 | 0.779 | 0.466 | 0.474 | 0.65 | 0.466 | 0.303 | 0.227 | 0.846 | – | 0.835 | 0.853 | 0.882 | 0.474 | 0.262
3 | ABC-1 | 0.536 | 0.651 | 0.448 | 0.474 | 0.457 | – | – | – | – | – | 0.807 | 0.521 | 0.331 | 1.11 | 0.821 | 1.14 | 1.13 | 1.24 | – | 0.345
4 | BEN | 0.331 | – | 0.362 | 0.229 | 0.332 | 0.775 | 0.757 | 0.632 | 0.553 | 0.332 | 0.373 | 0.243 | 0.242 | 0.669 | 0.445 | 0.592 | 0.552 | 0.588 | 0.663 | 0.282
5 | CAL-12T | 0.438 | 0.285 | 0.504 | 0.489 | 0.364 | 1.07 | 1.04 | 0.599 | 0.36 | 0.612 | 0.359 | – | 0.249 | 0.942 | 0.808 | 0.772 | 0.701 | 1.05 | 0.609 | 0.298
6 | COR-L23 | 0.522 | 0.503 | 0.499 | 0.57 | 0.662 | 0.198 | 0.207 | 0.18 | 0.196 | 0.331 | 0.402 | 0.298 | 0.148 | 0.52 | 0.428 | 0.412 | 0.433 | 0.458 | 0.178 | 0.222
7 | COR-L 105 | 0.346 | 0.375 | 0.388 | 0.352 | 0.368 | 1.01 | 1.08 | 0.882 | 0.668 | 0.561 | 0.517 | 0.714 | 0.571 | 0.921 | 0.847 | 0.733 | 0.766 | 0.91 | 0.698 | 0.469
